{
  "source": "patent US20220184000A1",
  "about": "“USE OF CANNABIDIOL IN THE TREATMENT OF DRAVET SYNDROME” (priority 2019, published 2022)",
  "type_in_all_cases": "in vivo",
  "key": {"Scn1a^+/− mice [1]": {"tested_on": "Scn1a^+/− mice", "assay": "Sucrose preference test, depression-like behaviour, Study II", "conditions": "CBD 100 mg/kg s.c. twice daily", "protocol": "(§1) Here, Scn1a^+/− were randomly divided into two groups and subcutaneously injected with either CBD (100 mg/kg twice daily; n=12) or its vehicle (ethanol:Kolliphor®:0.9% saline=2:1:17; n=29) from P8 onwards until P52 or death (whichever was earlier).\nThe sucrose preference test was carried out to assess the depression-like behaviour (Serova, Mulhall, & Sabban, 2017). The animals were separately housed during this test. Here, 24 hours before the test, animals were trained to drink from two bottles each containing 2% sucrose. On the first day of test, the animals were provided with a pre-weighed bottle of 2% sucrose and another containing a pre-weighed volume of tap water. The positions of the bottles were swapped after 24 hours to avoid any side preferences. After 48 hours, both bottles were weighed, and sucrose preference was calculated by using the following formula: […]\n(§2) In Study II, the data were analysed in GraphPad Prism 6 software. […] Data obtained from rotarod, gait, social interaction (active interaction), EPM, sucrose preference, RAM (RME) tests were normally distributed and the differences between the three groups were analysed by one-way ANOVA. […] Parametric data are presented in scattered dot plot in the figures and are expressed as mean±SEM. Non-parametric data are presented in box plot in the figures and are expressed as median, min to max, and interquartile range (IQR). […]"}, "Scn1a^+/− mice [2]": {"tested_on": "Scn1a^+/− mice", "assay": "Gait test, Study II", "conditions": "CBD 100 mg/kg s.c. twice daily", "protocol": "as §1\nGait test was conducted to assess the cerebellar function of the animals (Patel & Hillard, 2001). In this test, the hind paws of each mouse were marked with a non-toxic ink and the mouse was allowed to walk on a white paper (50×10 cm) placed on the floor of a custom-made plexiglass tunnel (50×10×10 cm). To obtain the left and right stride length, the distance between two ipsilateral paw prints was measured, whereas stride width was calculated from the distance between a footprint and its contralateral stride length at right angle (Wecker et al., 2013). The initial and last footprints were not considered in measurements. All the animals were habituated to the test procedures and the apparatus for 2 days prior to the test. On the day of test, two trials were conducted for each animal to obtain mean stride length (left or right) and width for that animal.\nIn Study II, the data were analysed in GraphPad Prism 6 software. Survival curves of Scn1a^+/− vehicle-treated and Scn1a^+/− CBD-treated group were compared using a Mantel-Cox test. The percentage of animals from the Scn1a^+/− vehicle-treated and Scn1a^+/− CBD-treated groups that survived until the end of the study (P52) were compared by Fisher's exact test. Further, data obtained from the comorbidity assessment were checked for normality by D'Agostino & Pearson omnibus normality test. Data obtained from rotarod, gait, social interaction (active interaction), EPM, sucrose preference, RAM (RME) tests were normally distributed and the differences between the three groups were analysed by one-way ANOVA. […] Parametric data are presented in scattered dot plot in the figures and are expressed as mean±SEM. Non-parametric data are presented in box plot in the figures and are expressed as median, min to max, and interquartile range (IQR). […]"}, "Scn1a^+/− mice [3]": {"tested_on": "Scn1a^+/− mice", "assay": "Survival / premature mortality in Scn1a^+/− mice, Study II (chronic model of Dravet syndrome)", "protocol": "The animals were group housed throughout Study II except for 3 days during sucrose preference test when each animal was individually housed. This experiment was conducted in dark cycle (dim red light, 8:00-20:00 h). Male 129S-Scn1^atm1Kea/Mmjax heterozygote mice (Jackson Laboratory, USA) were bred with female wild type C57BL/6 mice (Charles River, UK) to obtain Scn1a^+/− and wild type (WT) littermate mice used in this study. At the end of the study, animals were humanely killed by cervical dislocation. […]\nAs seizure-related deaths in this model were unpredictable, animals were video monitored continuously (24 h×7 days) throughout the study and any mortality observed was cross checked with the available video footage to confirm the reason of death.\nas §2"}},
  "data": [
    {"molecule": "C=C(C)[C@@H]1CCC(C)=C[C@H]1c1c(O)cc(CCCCC)cc1O", "note": "[CBD, cannabidiol]", "values": [
      {"measurement": "sucrose preference, Scn1a^+/− CBD-treated versus WT vehicle-treated", "setting": "Scn1a^+/− mice [1]; p=0.36", "value": "similar"},
      {"measurement": "sucrose preference, Scn1a^+/− vehicle-treated compared to Scn1a^+/− CBD-treated", "setting": "Scn1a^+/− mice [1]; statement describes vehicle group relative to CBD group (n=10), p=0.01, FIG. 4D", "value": "reduced preference for sucrose"},
      {"measurement": "stride width between the three groups", "setting": "Scn1a^+/− mice [2]; p=0.17, FIG. 3E", "value": "no significant change"},
      {"measurement": "left stride length between the three groups", "setting": "Scn1a^+/− mice [2]; p=0.44, FIG. 3C", "value": "no significant change"},
      {"measurement": "right stride length between the three groups", "setting": "Scn1a^+/− mice [2]; p=0.44, FIG. 3D", "value": "no significant change"},
      {"measurement": "survival curve, Scn1a^+/− vehicle-treated versus CBD-treated", "setting": "Scn1a^+/− mice [3]; CBD 100 mg/kg s.c. twice daily from P8 until P52 or death, n=12 CBD, n=29 vehicle, Mantel-Cox p=0.04, FIG. 2A", "value": "Survival was significantly less in Scn1a^+/− vehicle-treated group"},
      {"measurement": "animals that died before the completion of the study (P52)", "setting": "Scn1a^+/− mice [3]; Scn1a^+/− CBD-treated, 2 of 12, CBD 100 mg/kg s.c. twice daily from P8, vehicle approximately 66% (19 of 29), p<0.0001, FIG. 2B", "value": 17, "unit": "%"}
    ]}
  ]
}
